Data on 89 compounds can be found in a melting point compilation (Tetko et al.; mined from patent text by program, amines drawn as free bases though some values may be those of a salt).

Each structure is given as a SMILES string.

On to `Cc1nc(NC(=O)Nc2ccccc2)n(C)c(=O)c1CCN1CCN(c2noc3ccccc23)CC1`, for which the melting point (usually the temperature of the solid-liquid transition) was determined as 216 °C.

For the compound `C#Cc1ccc2c(c1)c1cc(-c3ccc(Cl)cc3Cl)c(=O)n(C)c1n2C`, the melting point lay within 184 to 185 °C.

Take `Cc1cc(Br)c(C)cc1N`: the melting point lay within 92 to 93 °C.

Consider `CCC(=O)C(Oc1cc(C#N)cc(C#N)c1)C(=O)OC` (centres undefined), for which the melting point lay in the range of 93 to 95 °C.

`CC(=O)OCC1CC(n2c(I)nc3cc(Cl)c(Cl)cc32)C(OC(C)=O)C1OC(C)=O` (centres undefined): the melting point lay in the range of 152 to 153 °C.

Take `CCOc1ccc(-c2c(O)c3ccc(Cl)cc3[nH]c2=O)cc1`: the melting point is greater than 320 °C.

`O=C1c2ccccc2COc2c(Br)cccc21`: the melting point was in the range of 127 to 130 °C.

In turn, `CNc1ccc(C(=O)NCCC(=O)O)cc1[N+](=O)[O-]` gave a melting point of 187 to 190 °C.

`Cc1ccc(S(=O)(=O)OC[C@H]2CCc3ccc4ccccc4c3O2)cc1` came in with a melting point of 107 to 111 °C.

`CC(O)=C(C#N)C(=O)Nc1ccc(Cl)cc1Cl` had a melting point of 143 to 144 °C.

For the compound `Cn1c(=O)c2c(ncn2CC(=O)Nc2ccc(-n3nc(C(F)(F)F)cc3C3CC3)cc2)n(C)c1=O`, the melting point fell in the range of 178 to 184 °C.

The compound `Cc1ccc(S(=O)(=O)OCC2Cc3cccc(-c4c(Cl)cccc4Cl)c3O2)cc1` (centres undefined) showed a melting point of 178 to 180 °C.

As for `CON=CC1=CCCN(C(=O)OCC(N)=O)C1`, the melting point was 131 to 133 °C.

Turning to `COc1ccc(COc2ccc(/C=C/c3cc(/C=C/c4ccc5cc[nH]c5c4)n[nH]3)c(OC)c2)cc1`, the melting point fell in the range of 211 to 214 °C.

`CCN1C(=O)C(C)(C)C(=O)N(C)c2cc(CN(CCn3cc(C)c4occc4c3=O)Cc3cncn3C)ccc21` came in with a melting point of 100 to 105 °C.

Compound `Cc1ccc2c(S(C)(=O)=O)cn(CC3=NCCN3)c2c1` showed a melting point greater than 300 °C.

`COc1cc(Sc2nc(C)c(CC(=O)O)s2)nc(OC)n1` returned a melting point of 164 to 165 °C.

Turning to `CCCN(CC)S(=O)(=O)NC(=S)N1CC(c2ccccc2)C(c2ccc(Cl)cc2)=N1` (centres undefined), the melting point was in the range of 144 to 146 °C.

Turning to `Cc1cc2cc([N+](=O)[O-])ccc2o1`, the melting point lay within 93 to 95 °C.

As to `CC(C)Oc1cc(NC(=O)C2=C(C(=O)N(C)C)CCCC2)ccc1Br`, the melting point lay within 137 to 138 °C.

Consider `CCCCCC(=O)N(CO)C1N=C(c2ccccc2)c2ccccc2N(C)C1=O` (single isomer, unassigned; (+)), for which the melting point was in the range of 154 to 156 °C.

Compound `CN1CCC(c2cccc3c2C[C@H](NC(=O)c2ccc(N4CCOCC4)cc2)CC3)CC1` had a melting point of 196 to 198 °C.

Consider `CCCCCCCCCCCCCCCCOc1cccc(O)c1`, for which the melting point fell in the range of 58 to 59 °C.

The compound `COC(=O)COc1ccc2cc(CNC(=O)c3cnn(-c4ccc(Cl)cc4)c3C(F)(F)F)ccc2c1Br` gave a melting point of 206 to 207 °C.

Regarding `NC1=NC(c2cccc(-c3cccnc3F)c2)(c2ccc3c(c2)OCCO3)C2=NCCCN12` (centres undefined), the melting point was in the range of 125 to 140 °C.

For `COc1ccc2c(c1)CCC1=C2CCC2(CC(C)C)C(=O)CCC12` (centres undefined), the melting point was 117 to 119 °C.

In turn, `CCOC(=O)C(CC)Cc1ccc(NC(=O)c2ccc(Cl)cc2)cc1` (centres undefined) returned a melting point of 119 to 120 °C.

The compound `CCOC(=O)C1=C(C)NC(C)=C(C(=O)OCC)C1c1ccccc1/C=C/C(=O)OC1CCCCCC1` yielded a melting point of 192 to 194 °C.

`COC(=O)c1ccc2c(c1CBr)OCO2` displayed a melting point of 56 to 58 °C.

In the case of `CC1(C)Cc2ccccc2C=[N+]1[O-]`, the melting point fell in the range of 70 to 72 °C.

`CC1(C)CC(=O)Nc2cc(N)ccc21` returned a melting point of 161 to 163 °C.

`CCOCc1cc2cc(Cl)ccc2oc1=O` came in with a melting point of 100 to 101 °C.

The compound `CCCCCCCCCCCCCCCCCCNC(=O)OCC(CNS(=O)(=O)CCCI)NC(=O)OC` (centres undefined) showed a melting point of 97 °C.

On to `Oc1cc(O)cc(/C=C/c2ccccc2)c1`, for which the melting point lay in the range of 157 to 158 °C.

`CN1CCN(c2ccc(N/C=C3\C(=O)NC(=O)c4ccc(-n5cccc5)cc43)cc2)CC1` had a melting point of 239 to 240 °C.

Compound `CC(=O)OC(c1ccccc1S(N)(=O)=O)C(C)F` (centres undefined) gave a melting point of 105 to 107 °C.

`CCNC(=O)c1cc(NS(=O)(=O)c2ccc(OC)cc2)ccc1Oc1cncc(Cl)c1` yielded a melting point of 146 to 147 °C.

`O=Cc1ccc(C(=O)Nc2nccs2)cc1`: the melting point came out at 189 °C.

As to `CCC(C)(C)NC(Nc1ccc2c(c1)OCO2)=C(C#N)C(=O)C(C)(C)C`, the melting point is 161 to 165 °C.

`CC(C)(COC(c1ccccc1)(c1ccccc1)c1ccccc1)C(=O)O` displayed a melting point of 153 to 158 °C.

In turn, `CC(C)(C)OC(=O)N1CCCC(c2nc(-c3ccncc3)c(-c3ccc(F)cc3)[nH]2)C1` (centres undefined) registered a melting point of 193 to 194 °C.

Compound `CC(=O)NC1CCN(c2ccc(Cl)cn2)CC1` displayed a melting point of 196 to 198 °C.

`ClC(Cl)=Cc1sc(-c2ccccc2)cc1-c1ccccc1` came in with a melting point of 111 to 113 °C.

On to `CC(=O)Nc1ncc2ncn([C@@H]3C[C@H](OC(C)=O)[C@@H](O)[C@H]3O)c2n1` (racemic), for which the melting point was 222 to 223 °C.

`C=C1C(=O)N(C)CCC1(O)c1cccc(OC)c1` (centres undefined) had a melting point of 127 to 128 °C.

With `N#Cc1ccc2c(c1)C1(COc3cc4c(cc31)OCCO4)C(=O)N2Cc1ccccn1` (centres undefined), the melting point was in the range of 198 to 199 °C.

`O=C(CCCN1CCC(C(O)c2cccc3ccccc23)CC1)c1ccc(F)cc1` (centres undefined) registered a melting point of 172 to 174 °C.

In the case of `O=C1N(c2ccc(I)cc2)CCCC1(Cl)Cl`, the melting point is 153 to 155 °C.

Regarding `CSc1ncc(C=O)c(N)n1`, the melting point fell in the range of 184 to 186 °C.

Compound `COC(=O)C=Cc1cc2ccccc2nc1Cl` returned a melting point of 153 to 154 °C.

In turn, `COc1ccc2c(c1)-c1nc(-c3ccccc3C)c(N)n1CC2` showed a melting point of 160 °C.

As for `CCC1(C)OC(c2ccc(S(N)(=O)=O)cc2)=C(c2ccc(C(C)=O)cc2)C1=O` (centres undefined), the melting point lay in the range of 154 to 155 °C.

Compound `CN1Cc2c(C#CCO)ncn2-c2cccc(Cl)c2C1=O` came in with a melting point of 250 to 252 °C.

In turn, `Cc1ccc(Cl)cc1NC(=S)Nc1ccn(C)n1` had a melting point of 217 to 218 °C.

In the case of `O=C1CCc2ccc(OCCCCCl)cc2N1`, the melting point is 104 to 106 °C.

Compound `Cc1ccc2c(c1)c(N1CCNCC1)c(C#N)c(=O)n2C` returned a melting point of 274 °C.

Consider `Cc1c(-c2ccc3c(c2)OCO3)n(Cc2ccc(OCCN3CCCCC3)cc2)c2ccc(O)cc12`, for which the melting point lay in the range of 122 to 125 °C.

Turning to `COC(=O)NCCSc1cccc2nccn12`, the melting point lay in the range of 198 to 200 °C.

`CCCCCS(=O)(=O)NC(=O)c1ccc2nc(C)n(Cc3ccc(N(C)C(=O)C(C)(C)C)cc3Cl)c2n1`: the melting point fell in the range of 207 to 208 °C.

Turning to `COc1ccc2c(c1)OC(CNCCCOc1ccc3c(=O)ccoc3c1)CO2` (centres undefined), the melting point fell in the range of 155 to 157 °C.

In the case of `O=C1OC(c2ccccc2)C2CCc3cc(O)ccc3N12` (centres undefined), the melting point worked out at 216 °C.

With `Cc1ccc(CNC(=S)N2CCc3c([nH]c4ccccc34)C2c2ccc3c(c2)OCO3)cc1C` (centres undefined), the melting point lay within 138 to 142 °C.

For `COc1cc(OCC(=O)O)cc2c1C(=O)CC1(CCCCC1)S2`, the melting point lay in the range of 195 to 196 °C.

As to `COc1cc(OC)cc(-c2cc(=O)c3ccc(OCC4CO4)cc3o2)c1` (centres undefined), the melting point lay within 181 to 182 °C.

In turn, `CN1C(=O)Cn2cnnc2-c2cc(Cl)ccc21` displayed a melting point of 272 to 274 °C.

Consider `COc1cc2c(cc1Nc1ncc(Cl)c(Nc3cccnc3OC)n1)CCN(CC(=O)N(C)C)CC2`, for which the melting point is 68 to 76 °C.

`COc1ccc2nc3c(C)ccc([N+](=O)[O-])c3c(Cl)c2c1` yielded a melting point of 227 to 228 °C.

Take `COc1ccccc1Cc1ccc(C(=O)C2=C(O)C(=O)N(C(C)C)C2)o1`: the melting point is 123 to 124 °C.

`CN(CCc1ccncc1)C(=O)CCSc1cc(C(C)(C)C)c(O)c(C(C)(C)C)c1` showed a melting point of 129 to 132 °C.

For the compound `COC(=O)[C@]12CN(Cc3ccccc3)C[C@@H]1C(=O)CC[C@@]2(C)c1ccccc1` (racemic), the melting point worked out at 115 °C.

The compound `CCCCCC(OC(C)=O)c1ccccc1COc1cccc2ccc(=O)[nH]c12` (centres undefined) gave a melting point of 92 to 95 °C.

The compound `CC1(C)Cc2ccccc2C(c2cnc3ccccc3c2)N1` (centres undefined) displayed a melting point of 117 to 122 °C.

`CN(C)c1ccc2[nH]c(=O)oc(=O)c2c1` returned a melting point of 258 °C.

As for `CC(=O)S[C@H]1CC[C@H](/C=C/C=C/c2ccc(C(F)(F)F)cc2)CC1`, the melting point lay in the range of 113 to 115 °C.

In turn, `CCOC(=O)c1cn(-c2nnc(C)s2)cn1` had a melting point of 121 to 122 °C.

Consider `CCC(C)(C)Nc1c(NCc2ccc(F)cc2F)c(=O)c1=O`, for which the melting point lay in the range of 242 to 244 °C.

With `CC(C)Nc1cccnc1N1CCN(C(=O)c2ccc(C(=O)N3CCN(C4CCCC4)CC3)cc2)CC1`, the melting point was 181 to 182 °C.

With `NS(=O)(=O)c1cccc(-c2cccc(-c3nc(-c4ccc(Cl)cc4)cc(C(F)(F)F)n3)c2)c1`, the melting point was found to be 165 °C.

For the compound `CCSC1=C(C#N)C(c2ccccc2)(c2ccccc2)C(=O)N1CCCBr`, the melting point came out at 97 °C.

Compound `CC(c1oc2ccccc2c(=O)c1-c1ccccc1F)n1cnc2c(N)ncnc21` (centres undefined) showed a melting point of 247 to 250 °C.

Regarding `CC(C)c1nc(-c2ccccc2)c(C(C)C)c(-c2ccc(F)cc2)c1C=O`, the melting point is 159 to 160 °C.

The compound `O=C(O)CC(CSc1nc2ccccc2[nH]1)C(=O)O` (centres undefined) returned a melting point of 165 to 168 °C.

Regarding `O=C1C2=C(OCCO2)C(=O)c2cc(Cl)ccc21`, the melting point is 209 to 210 °C.

In turn, `CCCCc1nc2ccc(C)c(C(=O)OCC)c2n1Cc1ccc(-c2ccccc2-c2nnn[nH]2)cc1` returned a melting point of 164 to 165 °C.

`O=S(=O)(Nc1ccccc1OCc1ccc2ccccc2n1)c1ccc(Cl)cc1` yielded a melting point of 129 to 130 °C.

In turn, `O=C(O)c1cn(OCC2CN(Cc3ccccc3)CCN2Cc2ccccc2)c2cc(F)c(F)cc2c1=O` (centres undefined) registered a melting point of 158 to 159 °C.

Consider `CCN1CCN(Cc2nc(-c3ccc4c(c3)Nc3ccccc3S4)cs2)CC1`, for which the melting point lay within 182 to 184 °C.

Consider `CCOC(=O)C1=C(C)NC(=NC#N)N(C(=O)OCC)C1c1cccc([N+](=O)[O-])c1` (centres undefined), for which the melting point lay in the range of 174 to 175 °C.

In the case of `Cn1c(C=NNCCO)cnc1[N+](=O)[O-]`, the melting point was 138 to 140 °C.
